Measured values: paper PMC7026418, “The kinase polypharmacology landscape of clinical PARP inhibitors” (Scientific Reports, 2020)
Read-outs that look alike come from different tables or passages of the source. One block for each compound: values may come before it.

Columns and labels:
Assay in all cases: biochemical
Parameters in all cases: DiscoveRx KINOMEscan active site-directed competition binding; percent of control kinase bound to immobilised ligand
VEGFR2 = target: T1, VEGFR2 (Homo sapiens, UniProt P35968)
T1 construct: gene KDR

CSNK1E = CSNK1E (Homo sapiens, UniProt P49674)
MYO3B = target: T2, MYO3B (Homo sapiens, UniProt Q8WXR4)
T2 sequence (Q8WXR4 1-1341): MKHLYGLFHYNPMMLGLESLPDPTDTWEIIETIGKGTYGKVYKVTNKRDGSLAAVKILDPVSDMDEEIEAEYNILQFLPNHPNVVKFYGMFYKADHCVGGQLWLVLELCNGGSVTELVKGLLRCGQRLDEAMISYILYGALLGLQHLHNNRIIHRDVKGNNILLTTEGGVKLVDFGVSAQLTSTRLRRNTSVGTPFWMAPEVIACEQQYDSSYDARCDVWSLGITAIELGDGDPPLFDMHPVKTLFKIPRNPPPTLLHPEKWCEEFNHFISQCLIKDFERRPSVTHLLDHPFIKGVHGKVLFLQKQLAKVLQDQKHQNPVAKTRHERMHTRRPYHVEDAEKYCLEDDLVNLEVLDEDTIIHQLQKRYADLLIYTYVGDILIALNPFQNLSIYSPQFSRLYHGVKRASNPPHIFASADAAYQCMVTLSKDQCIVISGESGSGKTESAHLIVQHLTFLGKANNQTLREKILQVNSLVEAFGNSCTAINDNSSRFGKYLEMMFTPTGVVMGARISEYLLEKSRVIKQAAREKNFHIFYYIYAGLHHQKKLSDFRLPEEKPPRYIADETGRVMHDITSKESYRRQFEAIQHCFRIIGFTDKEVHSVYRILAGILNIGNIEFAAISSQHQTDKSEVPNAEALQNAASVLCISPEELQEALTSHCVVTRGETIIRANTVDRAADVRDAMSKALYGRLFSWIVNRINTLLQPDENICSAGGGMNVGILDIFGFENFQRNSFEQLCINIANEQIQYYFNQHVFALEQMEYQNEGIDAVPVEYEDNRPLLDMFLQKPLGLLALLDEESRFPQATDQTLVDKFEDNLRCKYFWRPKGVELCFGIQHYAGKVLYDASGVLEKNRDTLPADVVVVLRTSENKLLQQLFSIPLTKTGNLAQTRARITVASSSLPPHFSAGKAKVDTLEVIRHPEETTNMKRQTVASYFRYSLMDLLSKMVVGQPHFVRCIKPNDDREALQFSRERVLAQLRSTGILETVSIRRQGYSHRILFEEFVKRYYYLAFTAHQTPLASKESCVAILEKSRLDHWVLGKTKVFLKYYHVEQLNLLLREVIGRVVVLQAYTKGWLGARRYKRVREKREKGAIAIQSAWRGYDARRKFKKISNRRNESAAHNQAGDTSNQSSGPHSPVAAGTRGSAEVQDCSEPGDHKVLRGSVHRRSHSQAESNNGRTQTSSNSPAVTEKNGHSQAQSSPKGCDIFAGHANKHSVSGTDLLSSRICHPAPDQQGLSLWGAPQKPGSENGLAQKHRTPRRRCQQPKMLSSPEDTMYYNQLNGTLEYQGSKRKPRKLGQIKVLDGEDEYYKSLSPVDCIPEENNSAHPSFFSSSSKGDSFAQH

ULK1 = target: T3, ULK1 (Homo sapiens, UniProt O75385)
T3 sequence (O75385 1-1050): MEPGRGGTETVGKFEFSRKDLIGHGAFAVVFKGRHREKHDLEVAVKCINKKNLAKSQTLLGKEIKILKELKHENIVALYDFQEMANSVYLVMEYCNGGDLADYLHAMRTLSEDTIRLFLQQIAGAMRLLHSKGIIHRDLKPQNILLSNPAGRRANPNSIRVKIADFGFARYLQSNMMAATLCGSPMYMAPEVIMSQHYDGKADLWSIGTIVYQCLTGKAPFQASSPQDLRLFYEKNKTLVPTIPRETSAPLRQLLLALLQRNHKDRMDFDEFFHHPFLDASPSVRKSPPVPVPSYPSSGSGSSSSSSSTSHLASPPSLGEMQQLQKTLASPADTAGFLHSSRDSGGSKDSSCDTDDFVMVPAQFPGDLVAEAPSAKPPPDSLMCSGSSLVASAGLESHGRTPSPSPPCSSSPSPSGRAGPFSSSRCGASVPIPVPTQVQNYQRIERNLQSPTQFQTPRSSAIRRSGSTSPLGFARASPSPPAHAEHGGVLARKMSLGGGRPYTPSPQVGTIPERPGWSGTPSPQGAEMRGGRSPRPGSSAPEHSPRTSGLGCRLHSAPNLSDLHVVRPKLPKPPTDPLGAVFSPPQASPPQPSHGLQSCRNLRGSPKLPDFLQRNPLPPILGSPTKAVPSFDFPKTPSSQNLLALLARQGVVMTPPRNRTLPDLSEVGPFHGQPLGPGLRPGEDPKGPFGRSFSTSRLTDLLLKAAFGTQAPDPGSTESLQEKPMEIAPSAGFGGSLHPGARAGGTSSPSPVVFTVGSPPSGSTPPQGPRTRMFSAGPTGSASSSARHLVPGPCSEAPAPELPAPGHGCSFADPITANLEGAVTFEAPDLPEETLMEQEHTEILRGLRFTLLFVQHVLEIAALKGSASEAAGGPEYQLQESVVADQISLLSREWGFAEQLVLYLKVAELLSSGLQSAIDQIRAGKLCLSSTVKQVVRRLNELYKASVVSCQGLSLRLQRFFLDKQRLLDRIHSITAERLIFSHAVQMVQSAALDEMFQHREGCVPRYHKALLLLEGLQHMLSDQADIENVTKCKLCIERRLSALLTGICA

PIP5K1C = PIP5K1C (Homo sapiens, UniProt O60331)
[1] = read-out: Niraparib (MK-4827) / %Ctrl @ 10000nM
[2] = read-out: Rucaparib / %Ctrl @ 10000nM, binding competition, % of control
[3] = read-out: Olaparib / %Ctrl @ 10000nM
[4] = read-out: Talazoparib (BMN 673) / %Ctrl @ 10000nM

T1 sequence (P35968 whole entry): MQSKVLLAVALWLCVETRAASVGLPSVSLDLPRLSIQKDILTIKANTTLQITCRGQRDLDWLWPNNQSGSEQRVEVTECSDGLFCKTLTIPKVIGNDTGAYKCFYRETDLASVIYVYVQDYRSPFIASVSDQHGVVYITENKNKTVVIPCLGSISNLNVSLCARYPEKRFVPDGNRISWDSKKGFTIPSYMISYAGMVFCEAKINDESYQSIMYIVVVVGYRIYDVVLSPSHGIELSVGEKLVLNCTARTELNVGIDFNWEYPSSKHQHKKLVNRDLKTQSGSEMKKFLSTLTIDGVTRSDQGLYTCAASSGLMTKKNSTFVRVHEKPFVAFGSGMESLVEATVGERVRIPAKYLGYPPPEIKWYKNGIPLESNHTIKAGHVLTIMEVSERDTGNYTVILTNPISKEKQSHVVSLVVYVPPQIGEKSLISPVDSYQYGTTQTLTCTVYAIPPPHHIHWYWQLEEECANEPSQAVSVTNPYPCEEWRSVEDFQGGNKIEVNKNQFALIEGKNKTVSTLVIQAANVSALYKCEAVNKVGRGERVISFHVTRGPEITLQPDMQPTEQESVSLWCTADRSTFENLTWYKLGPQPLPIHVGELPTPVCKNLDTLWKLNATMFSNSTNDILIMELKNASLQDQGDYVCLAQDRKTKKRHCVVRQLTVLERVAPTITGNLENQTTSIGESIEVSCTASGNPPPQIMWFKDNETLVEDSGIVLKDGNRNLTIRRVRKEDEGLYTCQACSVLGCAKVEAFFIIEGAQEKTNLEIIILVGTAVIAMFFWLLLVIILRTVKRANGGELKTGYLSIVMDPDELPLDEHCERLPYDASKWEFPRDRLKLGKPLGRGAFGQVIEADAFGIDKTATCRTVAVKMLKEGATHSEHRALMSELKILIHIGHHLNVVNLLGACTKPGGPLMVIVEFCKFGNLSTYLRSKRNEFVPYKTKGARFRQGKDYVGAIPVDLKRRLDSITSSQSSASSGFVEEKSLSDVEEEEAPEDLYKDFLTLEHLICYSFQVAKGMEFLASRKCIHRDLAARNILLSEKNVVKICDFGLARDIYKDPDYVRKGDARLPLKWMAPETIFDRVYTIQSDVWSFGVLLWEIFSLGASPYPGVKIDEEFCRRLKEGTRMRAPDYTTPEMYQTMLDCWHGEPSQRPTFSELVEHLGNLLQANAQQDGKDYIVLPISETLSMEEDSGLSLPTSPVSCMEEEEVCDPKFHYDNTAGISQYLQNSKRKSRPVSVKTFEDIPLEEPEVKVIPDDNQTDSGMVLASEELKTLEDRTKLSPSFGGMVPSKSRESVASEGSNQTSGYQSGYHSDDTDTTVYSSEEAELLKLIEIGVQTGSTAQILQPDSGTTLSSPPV
Chain of PIP5K1C (O60331 whole entry): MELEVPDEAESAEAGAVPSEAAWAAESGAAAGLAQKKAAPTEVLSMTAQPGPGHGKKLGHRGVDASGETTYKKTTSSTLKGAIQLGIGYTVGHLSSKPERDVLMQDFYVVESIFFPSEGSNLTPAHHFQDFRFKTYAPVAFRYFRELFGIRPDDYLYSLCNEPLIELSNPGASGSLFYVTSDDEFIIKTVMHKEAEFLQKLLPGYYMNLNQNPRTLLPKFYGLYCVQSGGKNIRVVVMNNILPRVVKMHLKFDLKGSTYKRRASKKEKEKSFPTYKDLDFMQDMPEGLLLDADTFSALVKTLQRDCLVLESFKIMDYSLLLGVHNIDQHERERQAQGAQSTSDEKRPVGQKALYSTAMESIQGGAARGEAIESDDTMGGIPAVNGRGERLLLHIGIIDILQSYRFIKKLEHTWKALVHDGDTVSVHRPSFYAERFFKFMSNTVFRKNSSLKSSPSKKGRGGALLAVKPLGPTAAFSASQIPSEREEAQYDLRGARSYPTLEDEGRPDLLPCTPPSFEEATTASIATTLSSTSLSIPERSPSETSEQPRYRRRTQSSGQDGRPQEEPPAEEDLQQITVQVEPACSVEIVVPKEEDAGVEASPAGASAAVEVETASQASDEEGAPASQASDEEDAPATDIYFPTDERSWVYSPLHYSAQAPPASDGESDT
Chain of CSNK1E (P49674 whole entry): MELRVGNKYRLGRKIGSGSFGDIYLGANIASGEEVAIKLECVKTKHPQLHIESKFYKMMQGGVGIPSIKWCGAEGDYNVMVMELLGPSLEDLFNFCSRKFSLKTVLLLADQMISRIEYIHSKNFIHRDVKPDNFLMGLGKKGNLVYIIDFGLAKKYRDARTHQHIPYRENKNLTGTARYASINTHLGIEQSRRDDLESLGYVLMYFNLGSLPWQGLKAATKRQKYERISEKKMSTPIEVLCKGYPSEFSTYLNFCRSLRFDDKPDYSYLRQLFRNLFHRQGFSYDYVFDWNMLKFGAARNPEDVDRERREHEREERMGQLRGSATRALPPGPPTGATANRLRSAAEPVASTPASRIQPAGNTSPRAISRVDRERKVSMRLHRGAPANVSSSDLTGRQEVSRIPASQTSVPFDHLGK

Compound: NC(=O)c1cccc2cn(-c3ccc([C@@H]4CCCNC4)cc3)nc12 [Niraparib]
percent of control binding at 10 µM (VEGFR2; [1]): 77% | percent of control binding at 10 µM (CSNK1E; [1]): 57% | percent of control binding at 10 µM (MYO3B; [1]): 56% | percent of control binding at 10 µM (ULK1; [1]): 100% | percent of control binding at 10 µM (PIP5K1C; [1]): 83%

percent of control binding at 10 µM (VEGFR2; [2]): 98% | percent of control binding at 10 µM (CSNK1E; [2]): 76% | percent of control binding at 10 µM (MYO3B; [2]): 62% | percent of control binding at 10 µM (ULK1; [2]): 64% | percent of control binding at 10 µM (PIP5K1C; [2]): 100%
Compound: CNCc1ccc(-c2[nH]c3cc(F)cc4c3c2CCNC4=O)cc1 [Rucaparib]

percent of control binding at 10 µM (VEGFR2; [3]): 95% | percent of control binding at 10 µM (CSNK1E; [3]): 90% | percent of control binding at 10 µM (MYO3B; [3]): 75% | percent of control binding at 10 µM (ULK1; [3]): 83% | percent of control binding at 10 µM (PIP5K1C; [3]): 100%
Compound: O=C(c1cc(Cc2n[nH]c(=O)c3ccccc23)ccc1F)N1CCN(C(=O)C2CC2)CC1 [Olaparib]

percent of control binding at 10 µM (VEGFR2; [4]): 100% | percent of control binding at 10 µM (CSNK1E; [4]): 69% | percent of control binding at 10 µM (MYO3B; [4]): 97% | percent of control binding at 10 µM (ULK1; [4]): 94% | percent of control binding at 10 µM (PIP5K1C; [4]): 100%
Compound: Cn1ncnc1[C@H]1c2n[nH]c(=O)c3cc(F)cc(c23)N[C@@H]1c1ccc(F)cc1 [Talazoparib]
